Measurements as given in publication PMC9239247, “Listeria monocytogenes TcyKLMN Cystine/Cysteine Transporter Facilitates Glutathione Synthesis and Virulence Gene Expression” (mBio, 2022).

Target: T1, TcyK (Listeria monocytogenes, UniProt A0A0H3GMT4)
T1 construct: gene LMRG_01494; residues 38-286, without membrane-anchoring domain; N-terminal His-tag (pET-19b, cleavage not mentioned); codon-optimised, E. coli BL21-Gold(DE3)
Assay: isothermal titration calorimetry
Assay type: binding

T1 sequence (A0A0H3GMT4 entry or part of it): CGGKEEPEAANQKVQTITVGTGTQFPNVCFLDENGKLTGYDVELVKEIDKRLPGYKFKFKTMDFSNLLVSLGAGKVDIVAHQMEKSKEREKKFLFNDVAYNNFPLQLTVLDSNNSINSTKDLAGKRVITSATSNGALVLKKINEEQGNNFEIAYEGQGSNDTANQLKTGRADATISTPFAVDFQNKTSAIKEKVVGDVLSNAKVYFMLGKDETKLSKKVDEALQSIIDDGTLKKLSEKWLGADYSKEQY

| Compound | Kd |
| --- | --- |
| N[C@@H](CSSC[C@H](N)C(=O)O)C(=O)O [CSSC, cystine] | ~13 µM |
| N[C@@H](CS)C(=O)O [Cys, L-cysteine] | ~66.7 µM |
